Source: paper PMC6598531, “Appraisal of anti-protozoan activity of nitroaromatic benzenesulfonamides inhibiting carbonic anhydrases from Trypanosoma cruzi and Leishmania donovani” (Journal of Enzyme Inhibition and Medicinal Chemistry, 2019)
≈ marks a conversion by molar mass, not a printed value. Like-named read-outs stand apart in the source and are kept apart here.

Columns and labels:
[1] = test system: L. amazonensis; test: growth inhibition of L. amazonensis promastigotes (resazurin); format: cell-based; settings: Leishmania amazonensis, 48 h; for MIC: promastigotes, 28 °C
[2] = test system: L. infantum; test: growth inhibition of L. infantum promastigotes (resazurin); format: cell-based; settings: Leishmania infantum, 48 h; for MIC: promastigotes, 28 °C
[3] = in vitro; settings: mouse, RAW 264.7 macrophages
[4] = test system: T. cruzi Y; test: growth inhibition of T. cruzi Y epimastigotes (resazurin); format: cell-based; settings: Trypanosoma cruzi, 48 h, 28 °C
[5] = test system: T. cruzi Dm 28c; test: growth inhibition of T. cruzi Dm28c epimastigotes (resazurin); format: cell-based; settings: Trypanosoma cruzi, 48 h; for MIC: epimastigotes, 28 °C
[6] = molecular target: LdcCA (Leishmania infantum, UniProt A4HSV2); test: biochemical
LdcCA, sequence (A4HSV2 1-306): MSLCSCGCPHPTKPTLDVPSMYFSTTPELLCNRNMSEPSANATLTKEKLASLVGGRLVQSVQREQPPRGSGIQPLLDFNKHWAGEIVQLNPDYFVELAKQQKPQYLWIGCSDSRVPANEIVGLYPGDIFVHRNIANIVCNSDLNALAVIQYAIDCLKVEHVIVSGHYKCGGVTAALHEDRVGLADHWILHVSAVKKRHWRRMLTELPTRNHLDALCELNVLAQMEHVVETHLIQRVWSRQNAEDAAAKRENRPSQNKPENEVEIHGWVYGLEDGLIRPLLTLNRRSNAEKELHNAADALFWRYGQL

[7] = molecular target: hCA II (Homo sapiens, UniProt P00918); test: stopped flow CO2 hydrase assay, hCA II inhibition
[8] = molecular target: hCA I (Homo sapiens, UniProt P00915); test: stopped flow CO2 hydrase assay, hCA I inhibition
hCA I, sequence (P00915 whole entry): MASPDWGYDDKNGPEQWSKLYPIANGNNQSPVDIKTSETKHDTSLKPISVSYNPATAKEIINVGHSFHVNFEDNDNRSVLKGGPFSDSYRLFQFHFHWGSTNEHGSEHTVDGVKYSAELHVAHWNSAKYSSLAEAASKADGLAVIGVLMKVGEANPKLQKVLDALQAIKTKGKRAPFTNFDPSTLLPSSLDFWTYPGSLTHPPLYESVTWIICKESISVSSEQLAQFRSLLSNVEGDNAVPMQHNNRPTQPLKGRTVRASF

[9] = concentration which reduced the number of promastigotes by 50%
[10] = read-out: KI hCA II, stopped flow CO2 hydrase assay, mean from three assays
[11] = read-out: KI hCA I, stopped flow CO2 hydrase assay, mean from three assays

## C[C@@H]1[C@H](O)[C@@H](C)/C=C/C=C/C=C/C=C/C=C/C=C/C=C/[C@H](O[C@@H]2O[C@H](C)[C@@H](O)[C@H](N)[C@@H]2O)C[C@@H]2O[C@](O)(C[C@@H](O)C[C@@H](O)[C@H](O)CC[C@@H](O)C[C@@H](O)CC(=O)O[C@H]1C)C[C@H](O)[C@H]2C(=O)O [Amp, amphotericin B, reference compound]
[1]; [9]
  IC50: 1650 ± 280 nM
[1]
  MIC: 8 µM (≈ 7.39 µg/mL)
[2]; [9]
  IC50: 1770 ± 350 nM
[2]
  MIC: 8 µM (≈ 7.39 µg/mL)
[3]
  CC50 at 48 h: 1000 nM

## O=C(Cn1ccnc1[N+](=O)[O-])NCc1ccccc1 [Bzn, benznidazole, reference compound]
[4]
  MIC: 32 µM (≈ 8.33 µg/mL)
[5]; concentration which reduced the proliferation of epimastigotes by 50%
  IC50: 16600 ± 1510 nM
[5]
  MIC: 32 µM (≈ 8.33 µg/mL)
[3]
  CC50 at 48 h: 115000 ± 9480 nM

## NS(=O)(=O)c1ccc(O)c([N+](=O)[O-])c1 [Compound 4]
[6]
  SI (KI1/KI2) CA I/LdcCA: 4.3
  SI (KI1/KI2) CA II/LdcCA: 1.1
[6]; read-out: KI LdCA
  Ki: 210 nM
[1]
  MIC: > 400 µM
[7]; [10]
  Ki: 240 nM
[4]
  MIC: > 256 µM
[5]
  MIC: > 256 µM
[8]; [11]
  Ki: 910 nM
[2]
  MIC: > 400 µM
[3]
  CC50 at 48 h: 97600 ± 11100 nM

## NS(=O)(=O)c1cc([N+](=O)[O-])c(OC(=O)c2ccccc2)c([N+](=O)[O-])c1 [Compound 7]
[6]
  Ki: 4680 nM
  SI (KI1/KI2) CA I/LdcCA: 1.0
  SI (KI1/KI2) CA II/LdcCA: 0.2
[7]; [10]
  Ki: 840 nM
[8]; [11]
  Ki: 4790 nM

## Nc1cc(S(N)(=O)=O)cc([N+](=O)[O-])c1O [Compound 8, 3-amino-4-hydroxy-5-nitro-benzenesulfonamide]
[6]
  SI (KI1/KI2) CA I/LdcCA: 13.4
  SI (KI1/KI2) CA II/LdcCA: 1.3
[6]; read-out: KI LdCA
  Ki: 460 nM
[1]
  MIC: > 400 µM
[7]; [10]
  Ki: 610 nM
[4]
  MIC: > 256 µM
[5]
  MIC: > 256 µM
[8]; [11]
  Ki: 6180 nM
[2]
  MIC: > 400 µM
[3]
  CC50 at 48 h: > 256000 nM

## NS(=O)(=O)c1cc(NC(=O)c2ccccc2)c(OC(=O)c2ccccc2)c([N+](=O)[O-])c1 [Compound 9]
[6]
  SI (KI1/KI2) CA I/LdcCA: 0.4
  SI (KI1/KI2) CA II/LdcCA: 0.1
[6]; read-out: KI LdCA
  Ki: 3870 nM
[7]; [10]
  Ki: 390 nM
[8]; [11]
  Ki: 1380 nM

## NS(=O)(=O)c1cc(NC(=O)c2ccc(F)cc2)c(OC(=O)c2ccc(F)cc2)c([N+](=O)[O-])c1 [Compound 10]
[6]
  SI (KI1/KI2) CA I/LdcCA: 0.3
  SI (KI1/KI2) CA II/LdcCA: 0.1
[6]; read-out: KI LdCA
  Ki: 8490 nM
[1]
  MIC: > 400 µM
[7]; [10]
  Ki: 460 nM
[4]
  MIC: > 256 µM
[5]
  MIC: > 256 µM
[8]; [11]
  Ki: 2920 nM
[2]
  MIC: > 400 µM
[3]
  CC50 at 48 h: 180000 ± 21300 nM

## Cc1cc(C)[n+](-c2cc(S(N)(=O)=O)cc([N+](=O)[O-])c2O)c(C)c1 [Compound 11]
[6]
  SI (KI1/KI2) CA I/LdcCA: >7.6
  SI (KI1/KI2) CA II/LdcCA: 0.3
[6]; read-out: KI LdCA
  Ki: 6570 nM
[1]
  MIC: > 400 µM
[7]; [10]
  Ki: 1810 nM
[4]
  MIC: > 256 µM
[5]
  MIC: > 256 µM
[8]
  Ki: > 50000 nM
[2]
  MIC: > 400 µM
[3]
  CC50 at 48 h: > 256000 nM

## NS(=O)(=O)c1cc(O)c(O)c([N+](=O)[O-])c1 [Compound 12]
[6]
  SI (KI1/KI2) CA I/LdcCA: 15.9
  SI (KI1/KI2) CA II/LdcCA: 1.6
[6]; read-out: KI LdCA
  Ki: 390 nM
[7]; [10]
  Ki: 640 nM
[8]; [11]
  Ki: 6210 nM

## NS(=O)(=O)c1cc(NC(=O)Nc2ccccc2)c(O)c([N+](=O)[O-])c1 [Compound 13]
[6]
  SI (KI1/KI2) CA I/LdcCA: >47.2
  SI (KI1/KI2) CA II/LdcCA: 2.6
[6]; read-out: KI LdCA
  Ki: 1060 nM
[7]; [10]
  Ki: 2780 nM

## NS(=O)(=O)c1cc(NC(=O)Nc2ccc(F)cc2)c(O)c([N+](=O)[O-])c1 [Compound 14]
[6]
  SI (KI1/KI2) CA I/LdcCA: 5.5
  SI (KI1/KI2) CA II/LdcCA: 0.5
[6]; read-out: KI LdCA
  Ki: 980 nM
[7]; [10]
  Ki: 530 nM
[8]; [11]
  Ki: 5390 nM

## NS(=O)(=O)c1cc(NC(=O)Nc2ccc(C(F)(F)F)cc2)c(O)c([N+](=O)[O-])c1 [Compound 15]
[6]
  SI (KI1/KI2) CA I/LdcCA: 2.2
  SI (KI1/KI2) CA II/LdcCA: 0.1
[6]; read-out: KI LdCA
  Ki: 2340 nM
[7]
  Ki: 240 nM
[8]; [11]
  Ki: 5200 nM

## Cc1cc(NC(=O)Nc2cc(S(N)(=O)=O)cc([N+](=O)[O-])c2O)ccc1F [Compound 16]
[6]
  SI (KI1/KI2) CA I/LdcCA: 2.6
  SI (KI1/KI2) CA II/LdcCA: 0.1
[6]; read-out: KI LdCA
  Ki: 2960 nM
[7]; [10]
  Ki: 210 nM
[8]; [11]
  Ki: 7580 nM

## NS(=O)(=O)c1cc(NC(=O)Nc2c(F)c(F)c(F)c(F)c2F)c(O)c([N+](=O)[O-])c1 [Compound 17]
[6]
  SI (KI1/KI2) CA I/LdcCA: 0.5
  SI (KI1/KI2) CA II/LdcCA: 0.2
[6]; read-out: KI LdCA
  Ki: 1360 nM
[1]
  MIC: > 400 µM
[7]; [10]
  Ki: 270 nM
[4]
  MIC: > 256 µM
[5]
  MIC: > 256 µM
[8]; [11]
  Ki: 690 nM
[2]
  MIC: > 400 µM
[3]
  CC50 at 48 h: > 256000 nM

## COc1cccc(NC(=O)Nc2cc(S(N)(=O)=O)cc([N+](=O)[O-])c2O)c1 [Compound 18]
[6]
  SI (KI1/KI2) CA I/LdcCA: 8.6
  SI (KI1/KI2) CA II/LdcCA: 5.4
[6]; read-out: KI LdCA
  Ki: 950 nM
[1]
  MIC: > 400 µM
[7]; [10]
  Ki: 5150 nM
[4]
  MIC: > 256 µM
[5]
  MIC: > 256 µM
[8]; [11]
  Ki: 8210 nM
[2]
  MIC: > 400 µM
[3]
  CC50 at 48 h: > 256000 nM

## NS(=O)(=O)c1cc(NC(=O)Nc2ccc3c(c2)OCO3)c(O)c([N+](=O)[O-])c1 [Compound 19]
[6]
  SI (KI1/KI2) CA I/LdcCA: >24.6
  SI (KI1/KI2) CA II/LdcCA: 2.1
[6]; read-out: KI LdCA
  Ki: 2030 nM
[1]
  MIC: > 400 µM
[7]; [10]
  Ki: 4330 nM
[4]
  MIC: > 256 µM
[5]
  MIC: > 256 µM
[2]
  MIC: > 400 µM
[3]
  CC50 at 48 h: 173000 ± 10400 nM

## Cc1cc(C)cc(NC(=O)Nc2cc(S(N)(=O)=O)cc([N+](=O)[O-])c2O)c1 [Compound 20]
[6]
  SI (KI1/KI2) CA I/LdcCA: 4.5
  SI (KI1/KI2) CA II/LdcCA: 0.2
[6]; read-out: KI LdCA
  Ki: 1860 nM
[7]; [10]
  Ki: 450 nM
[8]; [11]
  Ki: 8330 nM

## NS(=O)(=O)c1cc(NC(=O)Nc2cc(C(F)(F)F)cc(C(F)(F)F)c2)c(O)c([N+](=O)[O-])c1 [Compound 21]
[6]
  SI (KI1/KI2) CA I/LdcCA: 1.6
  SI (KI1/KI2) CA II/LdcCA: 0.5
[6]; read-out: KI LdCA
  Ki: 3650 nM
[1]
  MIC: > 400 µM
[7]; [10]
  Ki: 1720 nM
[4]
  MIC: > 256 µM
[5]
  MIC: > 256 µM
[8]; [11]
  Ki: 5990 nM
[2]
  MIC: > 400 µM
[3]
  CC50 at 48 h: > 256000 nM

## NS(=O)(=O)c1cc(NC(=O)NCCc2ccccc2)c(O)c([N+](=O)[O-])c1 [Compound 22]
[6]
  SI (KI1/KI2) CA I/LdcCA: 10.8
  SI (KI1/KI2) CA II/LdcCA: 3.6
[6]; read-out: KI LdCA
  Ki: 860 nM
[7]; [10]
  Ki: 3080 nM
[8]; [11]
  Ki: 9290 nM

## NS(=O)(=O)c1cc(NC(=O)NCc2ccco2)c(O)c([N+](=O)[O-])c1 [Compound 23]
[6]
  SI (KI1/KI2) CA I/LdcCA: >49.0
  SI (KI1/KI2) CA II/LdcCA: 2.5
[6]; read-out: KI LdCA
  Ki: 1020 nM
[7]; [10]
  Ki: 2530 nM

## CC(=O)OC[C@@H]1O[C@@H](OC(C)=O)[C@@H](NC(=O)Nc2cc(S(N)(=O)=O)cc([N+](=O)[O-])c2O)[C@H](OC(C)=O)[C@H]1OC(C)=O [Compound 24]
[6]
  SI (KI1/KI2) CA I/LdcCA: 1.6
  SI (KI1/KI2) CA II/LdcCA: 0.5
[6]; read-out: KI LdCA
  Ki: 3640 nM
[1]
  MIC: > 400 µM
[7]; [10]
  Ki: 1890 nM
[4]
  MIC: > 256 µM
[5]
  MIC: > 256 µM
[8]; [11]
  Ki: 5670 nM
[2]
  MIC: > 400 µM
[3]
  CC50 at 48 h: > 256000 nM

## NS(=O)(=O)c1cc(NC(=O)N[C@@H]2C(O)O[C@@H](CO)[C@H](O)[C@H]2O)c(O)c([N+](=O)[O-])c1 (stereo partly shown) [Compound 25]
[6]
  SI (KI1/KI2) CA I/LdcCA: 1.7
  SI (KI1/KI2) CA II/LdcCA: 0.3
[6]; read-out: KI LdCA
  Ki: 2970 nM
[7]; [10]
  Ki: 860 nM
[8]; [11]
  Ki: 4920 nM
